Test results as given in patent publication EP0414533A1, “Use of iodopropargyl esters of alpha-amino acid derivatives as antimicrobial agents” (ROHM AND HAAS COMPANY, priority 1989, dated 1991).
Where a name gives a salt, the structure may show the parent alone. Read-outs that look alike come from different tables or passages of the source.

Legend:
[1] = test system: Piricularia oryzae (PIR); assay: microbe, parasite or virus in culture; type: cell-based; settings: for inhibition of growth at 0.2 ppm: .2 ppm; for inhibition of growth at 0.4 ppm: .4 ppm; for inhibition of growth at 0.8 ppm: .8 ppm
[2] = test system: Rhizoctonia solani (RHI); assay: In-vitro plant fungicide test; type: cell-based; settings: Rhizoctonia solani; for inhibition of growth at 0.2 ppm: .2 ppm; for inhibition of growth at 0.4 ppm: .4 ppm; for inhibition of growth at 0.8 ppm: .8 ppm
[3] = test system: 7 FUNGI; assay: Microbicides broad spectrum secondary test against 7 fungi (Table V); type: cell-based; design: key: 1= no growth; 0= growth of the indicated fungi at dose indicated in ppm; settings: Mycophile agar, pH 5.0; for ANIG growth: Aspergillus niger; for APUL growth: Aureobasidium pullulans; for CRES growth: Cladosporium resinae; for GTRA growth: Gloeophyllum trabeum; for PFUN growth: Penicillium funiculosum; for RRUB growth: Rhodotorula rubra; for SSER growth: Sacharomyces cerevisiae
Description: In the case of fungi, the spores are harvested by pipetting water onto the slant and dislodging the spores with a sterile loop. The cell/spore suspension is standardized by controlling incubation time, temperature, and the volume of the diluent. The suspension is then used to inoculate the vessels containing the broth compound. […] The results of the minimum inhibitory concentration (MIC) tests of compounds of this invention are shown in Tables IIIa IIIb, IIIc, V, VI, VII, and VIII against the microorganisms shown in Table IX. [table]

[4] = test system: Aureobasidium pullulans (APUL); assay: Minimum inhibitory concentration (MIC), broth two-fold serial dilution test; type: cell-based; settings: Aureobasidium pullulans, read-out: MIC (F) APUL, M9G (minimal salts media with glucose); Table IIIc, iodopropargyl esters of peptides
[5] = test system: Staphylococcus aureus (SAUR); assay: as above; settings: Staphylococcus aureus, read-out: MIC (G+) SAUR, M9G (minimal salts media with glucose); Table IIIc, iodopropargyl esters of peptides
[6] = read-out: % Control at (ppm) indicated PIR
[7] = 25 ppm, read-out: % Control at (ppm) indicated PIR
[8] = read-out: % Control at 25 ppm PIR
[9] = Table IVb, read-out: % Control at (ppm) indicated RHI
[10] = Table IVa, read-out: % Control at 25 ppm RHI

Structure (SMILES): CC(C)(C)OC(=O)NCC(=O)OCC#CI [Compound 1, N-t-butoxycarbonylglycine iodopropargyl ester]
- inhibition of growth at 1.5 ppm [1, 6]: 50%
- inhibition of growth at 6 ppm [1, 6]: 100%
- inhibition of growth at 25 ppm [1, 7]: 100%
- inhibition of growth at 0.2 ppm [1, 6]: 0%
- inhibition of growth at 0.4 ppm [1, 6]: 0%
- inhibition of growth at 0.8 ppm [1, 6]: 0%
- inhibition of growth at 25 ppm [1, 8]: 100%
- inhibition of growth at 1.5 ppm [2, 9]: 100%
- inhibition of growth at 6 ppm [2, 9]: 100%
- inhibition of growth at 25 ppm [2, 10]: 100%
- inhibition of growth at 25 ppm [2, 9]: 100%
- inhibition of growth at 0.2 ppm [2, 9]: 0%
- inhibition of growth at 0.4 ppm [2, 9]: 75%
- inhibition of growth at 0.8 ppm [2, 9]: 100%
- ANIG growth ([3]; 0.2 PPM): 0
- ANIG growth ([3]; 1 PPM): 0
- ANIG growth ([3]; 5 PPM): 1
- ANIG growth ([3]; 25 PPM): 1
- APUL growth ([3]; 0.2 PPM): 0
- APUL growth ([3]; 1 PPM): 0
- APUL growth ([3]; 5 PPM): 0
- APUL growth ([3]; 25 PPM): 1
- CRES growth ([3]; 0.2 PPM): 0
- CRES growth ([3]; 1 PPM): 0
- CRES growth ([3]; 5 PPM): 0
- CRES growth ([3]; 25 PPM): 1
- GTRA growth ([3]; 0.2 PPM): 0
- GTRA growth ([3]; 1 PPM): 1
- GTRA growth ([3]; 5 PPM): 1
- GTRA growth ([3]; 25 PPM): 1
- PFUN growth ([3]; 0.2 PPM): 0
- PFUN growth ([3]; 1 PPM): 0
- PFUN growth ([3]; 5 PPM): 0
- PFUN growth ([3]; 25 PPM): 1
- RRUB growth ([3]; 0.2 PPM): 0
- RRUB growth ([3]; 1 PPM): 0
- RRUB growth ([3]; 5 PPM): 0
- RRUB growth ([3]; 25 PPM): 1
- SSER growth ([3]; 0.2 PPM): 0
- SSER growth ([3]; 1 PPM): 0
- SSER growth ([3]; 5 PPM): 0
- SSER growth ([3]; 25 PPM): 1

Structure (SMILES): C[C@H](N)C(=O)N[C@@H](COCc1ccccc1)C(=O)OCC#CI [Compound 19, L-alanyl-O-benzyl-L-serine iodopropargyl ester trifluoroacetate]
- MIC [4]: < 0.8 µg/mL
- inhibition of growth at 1.5 ppm [1, 6]: 0%
- inhibition of growth at 6 ppm [1, 6]: 0%
- inhibition of growth at 25 ppm [1, 7]: 100%
- inhibition of growth at 0.2 ppm [1, 6]: 0%
- inhibition of growth at 0.4 ppm [1, 6]: 0%
- inhibition of growth at 0.8 ppm [1, 6]: 0%
- inhibition of growth at 25 ppm [1, 8]: 100%
- inhibition of growth at 1.5 ppm [2, 9]: 0%
- inhibition of growth at 6 ppm [2, 9]: 0%
- inhibition of growth at 25 ppm [2, 10]: 100%
- inhibition of growth at 25 ppm [2, 9]: 100%
- inhibition of growth at 0.2 ppm [2, 9]: 0%
- inhibition of growth at 0.4 ppm [2, 9]: 0%
- inhibition of growth at 0.8 ppm [2, 9]: 0%
- MIC [5]: 100 µg/mL
